Data published in PMC2862727 (Molecular immunology, 2010).
Entries after “also recorded” stand apart in the source; their conditions may differ.

Key:
[1] = system: IL-1β production in THP-1 cells; experiment: IL-1β immunoblot of THP-1 cell lysates; details: for effect of inhibitor or antagonist alone on IL-1β generation: absence of receptor agonist, data not shown
[2] = system: specific ^125I-CYP binding sites on THP-1 membranes; details: one-site binding model, ref Talmadge, et al., 1993; cited from earlier work
[3] = target: β-AR mediating cAMP production in THP-1 cells (Homo sapiens, UniProt P08588); experiment: Iso-induced cAMP production in THP-1 cells, Schild regression analysis; type: cell-based; details: inhibition of Iso mediated cAMP production in THP-1 cells, n = 4
β-AR mediating cAMP production in THP-1 cells, sequence (P08588 whole entry): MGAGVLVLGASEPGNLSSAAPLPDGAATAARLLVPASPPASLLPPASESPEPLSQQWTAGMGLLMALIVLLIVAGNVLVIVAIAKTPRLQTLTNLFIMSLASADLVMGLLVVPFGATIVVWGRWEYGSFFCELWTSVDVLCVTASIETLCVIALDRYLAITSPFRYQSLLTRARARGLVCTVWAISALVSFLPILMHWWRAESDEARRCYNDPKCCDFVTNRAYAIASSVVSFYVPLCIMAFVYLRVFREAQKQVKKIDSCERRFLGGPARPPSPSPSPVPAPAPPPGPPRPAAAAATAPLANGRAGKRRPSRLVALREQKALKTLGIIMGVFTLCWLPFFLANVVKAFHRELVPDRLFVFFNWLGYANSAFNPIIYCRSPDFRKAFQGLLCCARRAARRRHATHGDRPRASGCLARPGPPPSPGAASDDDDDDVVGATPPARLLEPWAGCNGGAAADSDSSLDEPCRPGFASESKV

[4] = system: β-AR binding sites on THP-1 cell membranes; experiment: Saturation radioligand binding of 125I-CYP on crude THP-1 cell membranes; design: species or system human; details: THP-1 membranes, n = 6
[5] = system: inflammatory mediators secreted by THP-1 cells; experiment: Cytokine antibody array of conditioned media from THP-1 cells; type: cell-based, human; details: 2 h, n = 3
[6] = system: secreted IL-1β from THP-1 cells; experiment: ELISA of IL-1β secreted into media of THP-1 cells; type: cell-based, human; details: for secreted IL-1β in media: 2 h
[7] = system: IL-1β production in primary human monocytes; experiment: IL-1β immunoblot of primary human monocyte lysates; type: cell-based; details: individual treatment (30 ng/mL LPS or 0.1 μM Iso alone), n = 3
[8] = 30 ng/mL LPS and 0.1 μM Iso simultaneously
[9] = individual treatment (30 ng/mL LPS or 0.1 μM Iso alone), n = 6, control 1.6 ± 0.5 pg/mL

Q: With Cc1ccc(OCC(O)C(C)NC(C)C)c2c1CCC2 (racemic) [ICI 118,551, erythro-dl-1-(7-methylindan-4-yloxy)-3-isopropylaminobutan-2-ol] as the molecule, how does the “effect of inhibitor or antagonist alone on IL-1β generation” value (from here on “effect of inhibitor or antagonist alone”) ([1]; THP-1 cells) read?
A: no qualitative changes

Q: What about the Ki [2] of the same molecule?
A: 46 nM

Q: And the Schild regression slope [3]?
A: 1.0 ± 0.1

Q: Which Kd ([4]; read-out: equilibrium dissociation constant (Kd) of 125I-CYP, saturation binding) does the source give for CC(C)(C)NCC(O)COc1cccc2[nH]c(C#N)c(I)c12 (single isomer, unassigned; (-)) [^125I-CYP, (–)3-[^125I]iodocyanopindolol] here?
A: 0.0301 ± 0.0051 nM

Q: Which “number of binding sites (Bmax)” value ([4]; labeled by 125I-CYP) does the source give for CC(C)(C)NCC(O)COc1cccc2[nH]c(C#N)c([125I])c12 (single isomer, unassigned; (-)) [^125I-CYP, (–)3-[^125I]iodocyanopindolol] here?
A: 341 ± 77 fmol/mg protein

Q: For Cn1cc(C(F)(F)F)nc1-c1ccc(OCC(O)CNCCOc2ccc(O)c(C(N)=O)c2)cc1 (stereo not shown) [CGP 20712A, 1-(2-((3-carbamoyl-4-hydroxy)phenoxy)ethylamino)-3-(4-(1-methyl-4-trifluoromethyl-2-imidazoylyl)phenoxy)-2-propanol methanesulfonate], which “effect of inhibitor or antagonist alone” value ([1]; THP-1 cells) is on record?
A: no qualitative changes

Q: Which “effect of inhibitor or antagonist alone” value ([1]; THP-1 cells) does the source give for Cl.Cl.O=S(=O)(NCCNCC=Cc1ccc(Br)cc1)c1cccc2cnccc12 [H-89, N-[2-(p-bromocinnamylamino)ethyl]-5-isoquinolinesulfonamide dihydrochloride] here?
A: did not alter responses

Q: And the “IL-1β produced, fold over LPS” value ([1]; THP-1 lysates, 100 nM H-89 pre-incubation then 30 ng/mL LPS plus 0.1 μM Iso (Fig 7), n = 6)?
A: 1.4±0.1 fold over LPS

Q: Which results are given for CC(C)NCC(O)c1ccc(O)c(O)c1 (stereo not shown) [Iso, isoproterenol]?
A: LPS mediated TNF-α expression versus LPS alone [5, 8]: qualitative loss; also recorded: decreases; soluble IL-1β versus LPS stimulation alone [5, 8]: qualitative increase; expression pattern of inflammatory mediators versus basal ([5]; 0.1 μM Iso only): no differences in the expression pattern; synergistic modulation of LPS mediated production of IL-1β ([1]; THP-1 cells, LPS plus Iso versus LPS alone): > 4 fold; difference in IL-1β released into media between LPS alone and LPS plus Iso [6]: > 4 fold; secreted IL-1β in media ([6]; 0.1 μM Iso plus 30 ng/mL LPS, n = 6): 76.3 ± 24.7 pg/mL; secreted IL-1β in media [6, 9]: 4.8 ± 1.4 pg/mL

Q: With lipopolysaccharide [LPS] as the molecule, how does the “expression of secreted IL-1β and TNF-α versus control” value ([5]; 30 ng/mL LPS only) read?
A: qualitative increase

Q: What about the “IL-1β produced, fold over basal” value [7] of the same molecule?
A: 3.4 ± 1.8 fold

Q: What about the “IL-1β produced, fold over basal” value ([1]; THP-1 lysates, individual treatment (30 ng/mL LPS or 0.1 μM Iso alone), 2 hr, n = 5) of the same molecule?
A: 12.1 ± 3.9 fold

Q: What about the “secreted IL-1β in media” value [6, 9] of the same molecule?
A: 16.9 ± 2.6 pg/mL
